Measurements: PMC10541411 (Nature Communications, 2023)

Assays:
53BP1^TT = target: T1, 53BP1^TT (Homo sapiens, UniProt Q12888); experiment: NMR 15N relaxation measurements (R1, R2, NOE); settings: 1 mM 15N-labeled 53BP1TT, saturating amounts of small molecule
T1 construct: The tandem Tudor domain of 53BP1 (53BP1^TT, residues 1481–1603) was purified as previously described; made in house; host or cells: E. coli (only for the SAXS sample)
Method: The NMR relaxation measurements were carried out with 1 mM ^15N-labeled 53BP1^TT, 53BP1^TT-PN, and 53BP1^TT in the presence of saturating amounts of UNC3474 and UNC1118 in 25 mM sodium phosphate, pH 7.0, 100 mM NaCl, 1.5 mM NaN3, 0.3 mM DSS, 90% H2O/10% D2O, using standard experiments[58],[59]. The longitudinal and transverse ^15N relaxation rates R1 and R2 were determined using 12 and 14 relaxation delay times of 0.1–2 s and 4–120 ms, respectively. The first data point of each set of measurements was repeated for error assessment. The ^15N-{^1H} nuclear Overhauser ratios were obtained from a reference experiment without proton irradiation and a steady-state experiment with proton irradiation for 3 s.

53BP1^TT WT = 53BP1^TT WT (Homo sapiens, UniProt Q12888); experiment: Small angle X-ray scattering (SAXS); parameters: residues 1484-1603; made in house; host or cells: E. coli
Method: SAXS measurements were performed at 10 °C and different concentrations (0.67, 1.33 and 2 mg/mL) of 53BP1^TT WT, free and in complex with 10-fold molar excess of UNC3474 or UNC1118, in 25 mM sodium phosphate, pH 7.5, 15 mM NaCl, as well as on control samples containing only the small molecule in the same buffer. SAXS data were collected at the Lawrence Berkeley National Laboratory SYBILS beamline 12.3.1 and analyzed using programs from the SAXS data analysis software ATSAS (version 2.4.2)[63],[64] including PRIMUS, GNOM, AUTOPOROD, GASBOR and CRYSOL. PRIMUS (version 3.0) was used for initial data processing. Radii of gyration (Rg) were calculated using the Guinier approximation. Distance distribution functions P(r) and maximum particle dimensions were computed using GNOM. Molecular volumes and weights were estimated using AUTOPOROD. Ab initio reconstructions of molecular envelopes were done using GASBOR 2.3i. CRYSOL was used to back calculate the scattering curves and determine the goodness of fit.
Supplementary Table 1 | SAXS reporting data.
Organism Homo Sapiens Homo Sapiens Homo Sapiens
Source E. coli E. coli E. coli
Solvent composition 25 mM sodium 25 mM sodium 25 mM sodium
phosphate, pH 7.5, 15 phosphate, pH 7.5, 15 phosphate, pH 7.5, 15
SAXS data collection parameters
Source SIBYLS beamline 12.3.1 at the Advanced Light Source […]
Beam geometry (size, sample-to-detector distance) 0.1 x 0.1 mm, 1.5 m
Method for monitoring radiation damage Varied exposure lengths were compared against one another
Exposure time, number of exposures 0.5 s, 1 s, 2 s exposures for each concentration
Sample configuration A 1 mm sample was placed between two mica windows in a
Software employed for SAXS data reduction, analysis and interpretation
SAS data reduction Subtraction using established programs at SIBYLS beamline 12.3.1
Basic analyses and merging of curves. PRIMUS from ATSAS 2.4.2
Shape/bead modeling GASBOR 2.3i

[1] = target: T2, 53BP1^TT-PN (E1549P/D1550N) (Homo sapiens, UniProt Q12888, D1550N/E1549P); experiment: 1H-15N HSQC NMR titration of 15N-labeled 53BP1TT-PN; format: binding; settings: up to fourfold molar excess
T2 construct: The tandem Tudor domain of 53BP1 (53BP1^TT, residues 1481–1603) was purified as previously described; made in house
Method: All NMR data were collected at 25 °C on a 700 MHz Bruker Avance III spectrometer equipped with a cryoprobe. Data were processed and analyzed with NMRPipe[54] and NMRViewJ[55],[56].
To probe chemical shift perturbations, ^1H-^15N HSQC spectra were acquired on the following samples: 0.2 mM ^15N-labeled 53BP1^TT WT and 53BP1^TT-PN in 25 mM sodium phosphate, pH 7.0, 1.5 mM NaN3, 0.3 mM DSS, 90% H2O/10% D2O, free and incrementally titrated with various non-labeled inhibitors (UNC1078, UNC1118, UNC2170, UNC2991, UNC3474), as well as with H4KC20me2 and p53K382me2 peptides. Chemical shift perturbations (Δδ) were calculated using the Eq. (1):1 Δδ=(ΔN/5)^2+ΔH^2 where ΔN and ΔH are the corresponding differences in ^15N and ^1H chemical shifts between the bound and free forms of 53BP1.

Sequence of 53BP1^TT WT (Q12888 1484-1603): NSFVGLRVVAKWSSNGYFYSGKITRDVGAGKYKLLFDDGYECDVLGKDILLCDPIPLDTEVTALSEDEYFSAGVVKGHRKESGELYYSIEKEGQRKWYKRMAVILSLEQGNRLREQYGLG
T2 sequence (Q12888 1481-1603 E1549P/D1550N): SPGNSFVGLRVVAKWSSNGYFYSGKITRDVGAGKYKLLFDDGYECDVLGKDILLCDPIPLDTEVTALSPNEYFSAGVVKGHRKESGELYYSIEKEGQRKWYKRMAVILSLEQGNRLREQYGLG
T1 sequence (Q12888 1481-1603): as the sequence (Q12888 1481-1603 E1549P/D1550N) above, with P69E, N70D counted along it

Rg, P(r) analysis, of 53BP1TT complex (53BP1^TT WT; 10-fold molar excess of ligand, free 53BP1TT 18.85 ± 0.069): 20.18 ± 0.038 Å
Rg, Guinier analysis, of 53BP1TT complex (53BP1^TT WT; 10-fold molar excess of ligand, free 53BP1TT 19.1 ± 0.2): 20.1 ± 0.1 Å
dmax, P(r) analysis, of 53BP1TT complex (53BP1^TT WT; 10-fold molar excess of ligand, free 53BP1TT 62.5): 69.4 Å
Porod volume of 53BP1TT complex (53BP1^TT WT; 10-fold molar excess of ligand, free 53BP1TT 21822): 37692 Å3
interaction with 53BP1TT-PN (1H-15N HSQC titration) [1]: did not interact
SMILES: CC(C)c1cccc(C(=O)NCCCNC(C)(C)C)c1 [UNC3474]
effect on 15N relaxation rates of 53BP1TT (53BP1^TT): increase in R2 relaxation rates
changes in SAXS data upon complex formation (53BP1^TT WT; 10-fold molar excess of small molecule, 10 °C): agreed well with 53BP1^TT homodimerization
